US20210346524A1, “FUSOGENIC LIPOSOMES FOR SELECTIVE IMAGING OF TUMOR CELLS” (APA- Advanced Technologies Ltd., priority 2018, published 2021)

Test: Solubilization of fluorophore in aqueous hydration solution for liposome encapsulation
Assay type: physicochemical

- behaviour in phosphate buffered saline (PBS): creates aggregates
SMILES: CC1(C)C(/C=C/C=C/C=C/C=C2\N(CCCCS(=O)(=O)O)c3ccc4ccccc4c3C2(C)C)=[N+](CCCCS(=O)(=O)[O-])c2ccc3ccccc3c21 [ICG, indocyanine green]
